Assay results from patent US8053574B2, “Organic compounds” (Novartis AG, priority 2007, dated 2011).

Biological target: PI3K γ (Homo sapiens, UniProt P48736)
Test: PI3 kinase phosphorylation assay (Biological Method 1), Ki γ
Type: biochemical
Settings: Table 1, compounds of formula X
Protocol: The compounds of the invention were synthesized according to the examples provided above. PI3K inhibitory (IC50) values of the compounds were determined according to Biological Method 1.
Assay 1: Homogenous Solution Phase Assay
Compounds to be tested are dissolved in DMSO and directly distributed into 384-well flashplates at 1.25 μL per well. To start the reaction, 20 μL of 6 nM PI3 kinase are added into each well followed by 20 μL of 400 nM ATP containing a trace of radiolabeled ATP and 900 nM 1-alpha-phosphatidylinositol (PI). The plates are briefly centrifuged to remove any air gap. The reaction is performed for 15 minutes and then stopped by the addition of 20 μL of 100 mM EDTA. The stopped reaction is incubated overnight at RT to allow the lipid substrate to bind by hydrophobic interaction to the surface of the flashplate. The liquid in the wells is then washed away, and the labeled substrate is detected with scintillation counting.
Assay 2: One Step Solid Phase Assay
This method is similar to Assay 1 except that the lipid substrate (1-alpha-phosphatidylinositol (PI)) is first dissolved in a coating buffer and incubated on flashplate at room temperature overnight to allow the lipid substrate to bind by hydrophobic interaction to the surface of the flashplate. Unbound substrate is then washed away. On the day of assay, 20 μL of 6 nM PI3 kinase are added into each well followed by 20 μL of 400 nM ATP containing trace of radiolabeled ATP. Compounds are added together with enzyme and ATP to the lipid-coated plates. The plates are briefly centrifuged to remove any air gap. The reaction is performed for two to three hours. The reaction is stopped by addition of 20 μL of 100 mM EDTA or by immediate plate washing. Phosphorylated lipid substrate is detected by scintillation counting.
Assay 3: ATP Depletion Assay
Compounds to be tested are dissolved in DMSO and directly distributed into a black 384-well plate at 1.25 μL per well. To start the reaction, 25 μL of 10 nM PI3 kinase and 5 μg/mL 1-alpha-phosphatidylinositol (PI) are added into each well followed by 25 μL of 2 μM ATP. The reaction is performed until approx 50% of the ATP is depleted, and then stopped by the addition of 25 μL of KinaseGlo solution. The stopped reaction is incubated for 5 minutes and the remaining ATP is then detected via luminescence.

Sequence of PI3K γ (P48736 whole entry): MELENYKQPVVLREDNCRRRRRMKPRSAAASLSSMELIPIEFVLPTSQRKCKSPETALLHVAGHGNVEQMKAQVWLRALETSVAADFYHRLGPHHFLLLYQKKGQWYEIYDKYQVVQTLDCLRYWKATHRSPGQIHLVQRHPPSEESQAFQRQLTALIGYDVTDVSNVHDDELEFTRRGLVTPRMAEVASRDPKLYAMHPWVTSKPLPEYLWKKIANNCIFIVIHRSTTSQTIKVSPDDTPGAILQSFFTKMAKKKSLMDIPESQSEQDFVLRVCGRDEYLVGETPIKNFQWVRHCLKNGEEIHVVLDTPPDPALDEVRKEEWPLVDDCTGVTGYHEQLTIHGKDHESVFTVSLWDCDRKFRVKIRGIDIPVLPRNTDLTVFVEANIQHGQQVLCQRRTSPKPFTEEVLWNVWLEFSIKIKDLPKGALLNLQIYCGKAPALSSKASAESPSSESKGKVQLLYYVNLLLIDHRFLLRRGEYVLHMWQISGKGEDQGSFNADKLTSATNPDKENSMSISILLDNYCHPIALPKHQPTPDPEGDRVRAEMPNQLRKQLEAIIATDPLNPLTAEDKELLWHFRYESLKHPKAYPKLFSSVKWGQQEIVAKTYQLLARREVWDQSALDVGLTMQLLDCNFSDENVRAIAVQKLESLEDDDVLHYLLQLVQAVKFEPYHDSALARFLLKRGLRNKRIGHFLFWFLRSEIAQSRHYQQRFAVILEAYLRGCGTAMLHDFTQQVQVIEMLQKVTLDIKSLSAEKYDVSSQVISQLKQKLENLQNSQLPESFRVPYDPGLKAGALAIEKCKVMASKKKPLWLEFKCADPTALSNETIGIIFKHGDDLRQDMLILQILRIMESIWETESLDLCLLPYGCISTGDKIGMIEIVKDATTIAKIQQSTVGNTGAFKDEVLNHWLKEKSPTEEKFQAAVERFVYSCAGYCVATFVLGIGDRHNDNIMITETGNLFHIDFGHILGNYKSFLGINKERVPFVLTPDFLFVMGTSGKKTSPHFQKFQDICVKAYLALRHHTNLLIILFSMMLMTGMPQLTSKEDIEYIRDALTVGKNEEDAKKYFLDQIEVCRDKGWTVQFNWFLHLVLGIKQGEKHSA

Row | Compound | Ki
1 | CCn1nnc(CCNC(=O)Nc2cn3cc(-c4cc(Cl)cc(OC)c4)ccc3n2)n1 | 0.204 µM
2 | CCn1nnc(CCNC(=O)Nc2cn3cc(-c4cnn(Cc5ccccc5)c4)ccc3n2)n1 | 0.735 µM
3 | CC(C)n1nnc(CCNC(=O)Nc2cn3cc(-c4cncc(S(C)(=O)=O)c4)ccc3n2)n1 | 0.014 µM

Same assay, conditions: Table 2, compounds of formula X

Row | Compound | Ki
4 | 1-[2-(2-Isopropyl-2H-tetrazol-5-yl)-ethyl]-3-(6-quinolin-3-yl-imidazo[1,2-a]pyridin-2-yl)-urea [Example 1-49] | 0.57 µM
5 | CC(C)n1nnc(CCNC(=O)Nc2cn3cc(-c4ccncc4)ccc3n2)n1 [Example 1-2, 1-[2-(2-Isopropyl-2H-tetrazol-5-yl)-ethyl]-3-(6-pyridin-4-yl-imidazo[1,2-a]pyridin-2-yl)-urea] | 0.135 µM
6 | CC(C)n1nnc(CCNC(=O)Nc2cn3cc(-c4cncc(C#N)c4)ccc3n2)n1 [Example 1-3, 1-[6-(5-Cyano-pyridin-3-yl)-imidazo[1,2-a]pyridin-2-yl]-3-[2-(2-isopropyl-2H-tetrazol-5-yl)-ethyl]-urea] | 0.04 µM
7 | CC(C)n1nnc(CCNC(=O)Nc2cn3cc(-c4cncnc4)ccc3n2)n1 [Example 1-4, 1-[2-(2-Isopropyl-2H-tetrazol-5-yl)-ethyl]-3-(6-pyrimidin-5-yl-imidazo[1,2-a]pyridin-2-yl)-urea] | 0.165 µM
8 | CCOc1cncc(-c2ccc3nc(NC(=O)NCCc4nnn(C(C)C)n4)cn3c2)c1 [Example 1-6, 1-[6-(5-Ethoxy-pyridin-3-yl)-imidazo[1,2-a]pyridin-2-yl]-3-[2-(2-isopropyl-2H-tetrazol-5-yl)-ethyl]-urea] | 0.048 µM
9 | CC(C)n1nnc(CCNC(=O)Nc2cn3cc(-c4cncc(C(F)(F)F)c4)ccc3n2)n1 [Example 1-7, 1-[2-(2-Isopropyl-2H-tetrazol-5-yl)-ethyl]-3-[6-(5-trifluoromethyl-pyridin-3-yl)-imidazo[1,2-a]pyridin-2-yl]-urea] | 0.018 µM
10 | CCn1nnc(CCNC(=O)Nc2cn3cc(-c4ccc5c(c4)OCO5)ccc3n2)n1 [Example 1-8, 1-(6-Benzo[1,3]dioxol-5-yl-imidazo[1,2-a]pyridin-2-yl)-3-[2-(2-ethyl-2H-tetrazol-5-yl)-ethyl]urea] | 0.303 µM
11 | CCn1nnc(CCNC(=O)Nc2cn3cc(-c4cccc(C(F)(F)F)c4)ccc3n2)n1 [Example 1-9, 1-[2-(2-Ethyl-2H-tetrazol-5-yl)-ethyl]-3-[6-(3-trifluoromethyl-phenyl)-imidazo[1,2-a]pyridin-2-yl]-urea] | 0.24 µM
12 | CC(C)n1nnc(CCNC(=O)Nc2cn3cc(-c4cncc(Cl)c4)ccc3n2)n1 [Example 1-12, 1-[6-(5-Chloro-pyridin-3-yl)-imidazo[1,2-a]pyridin-2-yl]-3-[2-(2-isopropyl-2H-tetrazol-5-yl)-ethyl]urea] | 0.05 µM
13 | CC(C)n1nnc(CCNC(=O)Nc2cn3cc(-c4cncc(OC5CCOCC5)c4)ccc3n2)n1 [Example 1-13, 1-[2-(2-Isopropyl-2H-tetrazol-5-yl)-ethyl]-3-{6-[5-(tetrahydro-pyran-4-yloxy)-pyridin-3-yl}-imidazo[1,2-a]pyridin-2-yl]-urea] | 0.147 µM
14 | CCn1nnc(CCNC(=O)Nc2cn3cc(-c4cc(Cl)ccc4OC)ccc3n2)n1 [Example 1-14, 1-[6-(5-Chloro-2-methoxy-phenyl)-imidazo[1,2-a]pyridin-2-yl]-3-[2-(2-ethyl-2H-tetrazol-5-yl)-ethyl]urea] | 0.204 µM
15 | CC(C)(C)NC(=O)CCNC(=O)Nc1cn2cc(-c3cncc(-c4ccccc4)c3)ccc2n1 [Example 1-15, N-tert-Butyl-3-{3-[6-(5-phenyl-pyridin-3-yl)-imidazo[1,2-a]pyridin-2-yl]ureido}-propionamide] | 0.207 µM
16 | CC(C)n1nnc(CCNC(=O)Nc2cn3cc(-c4cncc(-c5ccccc5)c4)ccc3n2)n1 [Example 1-16, 1-[2-(2-Isopropyl-2H-tetrazol-5-yl)-ethyl]-3-[6-(5-phenyl-pyridin-3-yl)-imidazo[1,2-a]pyridin-2-yl]urea] | 0.24 µM
17 | COCCOCCOc1cncc(-c2ccc3nc(NC(=O)NCCc4nnn(C(C)C)n4)cn3c2)c1 [Example 1-17, 1-[2-(2-Isopropyl-2H-tetrazol-5-yl)-ethyl]-3-(6-{5-[2-(2-methoxy-ethoxy)-ethoxy]-pyridin-3-yl}-imidazo[1,2-a]pyridin-2-yl)-urea] | 0.268 µM
18 | CC(C)(C)NC(=O)CCNC(=O)Nc1cn2cc(-c3cncc(OC4CCOCC4)c3)ccc2n1 [Example 1-18, N-tert-Butyl-3-(3-{6-[5-(tetrahydro-pyran-4-yloxy)-pyridin-3-yl]-imidazo[1,2-a]pyridin-2-yl}-ureido)-propionamide] | 0.397 µM
19 | COc1ccc(-c2ccc3nc(NC(=O)NCCc4nnn(C(C)C)n4)cn3c2)cn1 [Example 1-19, 1-[2-(2-Isopropyl-2H-tetrazol-5-yl)-ethyl]-3-[6-(6-methoxy-pyridin-3-yl)-imidazo[1,2-a]pyridin-2-yl]-urea] | 0.301 µM
20 | COc1ccc(-c2ccc3nc(NC(=O)NCCc4nnn(CCF)n4)cn3c2)cn1 [Example 1-20, 1-[2-[2-(2-Fluoro-ethyl)-2H-tetrazol-5-yl]-ethyl]-3-[6-(6-methoxy-pyridin-3-yl)-imidazo[1,2-a]pyridin-2-yl]-urea] | 0.075 µM
21 | CCn1nnc(CNC(=O)Nc2cn3cc(-c4cncc(C(F)(F)F)c4)ccc3n2)n1 [Example 1-21, 1-(2-Ethyl-2H-tetrazol-5-ylmethyl)-3-[6-(5-trifluoromethyl-pyridin-3-yl)-imidazo[1,2-a]pyridin-2-yl]urea] | 0.014 µM
22 | CCc1cncc(-c2ccc3nc(NC(=O)NCCc4nnn(C(C)C)n4)cn3c2)c1 [Example 1-22, 1-[6-(5-Ethyl-pyridin-3-yl)-imidazo[1,2-a]pyridin-2-yl]-3-[2-(2-isopropyl-2H-tetrazol-5-yl)-ethyl]-urea] | 0.025 µM
23 | CCn1cnc(CCNC(=O)Nc2cn3cc(-c4cncc(C(F)(F)F)c4)ccc3n2)c1 [Example 1-23, 1-[2-(1-Ethyl-1H-imidazol-4-yl)-ethyl]-3-[6-(5-trifluoromethyl-pyridin-3-yl)-imidazo[1,2-a]pyridin-2-yl]-urea] | 0.028 µM
24 | Cc1ccc(-c2ccc3nc(NC(=O)NCCc4nnn(C(C)C)n4)cn3c2)cn1 [Example 1-24, 1-[2-(2-Isopropyl-2H-tetrazol-5-yl)-ethyl]-3-[6-(6-methyl-pyridin-3-yl)-imidazo[1,2-a]pyridin-2-yl]urea] | 0.113 µM
25 | CCc1nnn(CCNC(=O)Nc2cn3cc(-c4cncc(C(F)(F)F)c4)ccc3n2)n1 [Example 1-25, 1-[2-(5-Ethyl-tetrazol-2-yl)-ethyl]-3-[6-(5-trifluoromethyl-pyridin-3-yl)-imidazo[1,2-a]pyridin-2-yl]urea] | 0.026 µM
26 | CCc1nnn(CCNC(=O)Nc2cn3cc(-c4cncc(C#N)c4)ccc3n2)n1 [Example 1-26, 1-[6-(5-Cyano-pyridin-3-yl)-imidazo[1,2-a]pyridin-2-yl]-3-[2-(5-ethyl-tetrazol-2-yl)-ethyl]-urea] | 0.115 µM
27 | O=C(NCCn1nnc(C2CC2)n1)Nc1cn2cc(-c3cncc(C(F)(F)F)c3)ccc2n1 [Example 1-27, 1-[2-(5-Cyclopropyl-tetrazol-2-yl)-ethyl]-3-[6-(5-trifluoromethyl-pyridin-3-yl)-imidazo[1,2-a]pyridin-2-yl]-urea] | 0.028 µM
28 | CC(C)n1nnc(CCNC(=O)Nc2cn3cc(-c4cccc(F)c4)ccc3n2)n1 [Example 1-28, 1-[6-(3-Fluoro-phenyl)-imidazo[1,2-a]pyridin-2-yl]-3-[2-(2-isopropyl-2H-tetrazol-5-yl)-ethyl]urea] | 0.836 µM
29 | COc1cccc(-c2ccc3nc(NC(=O)NCCc4nnn(C(C)C)n4)cn3c2)c1 [Example 1-29, 1-[2-(2-Isopropyl-2H-tetrazol-5-yl)-ethyl]-3-[6-(3-methoxy-phenyl)-imidazo[1,2-a]pyridin-2-yl]-u] | 1.03 µM
30 | CCn1nnc(CCNC(=O)Nc2cn3cc(-c4cnc5ccccc5c4)ccc3n2)n1 [Example 1-30, 1-[2-(2-Ethyl-2H-tetrazol-5-yl)-ethyl]-3-(6-quinolin-3-yl-imidazo[1,2-a]pyridin-2-yl)-urea] | 0.57 µM
31 | CC(C)n1nnc(CCNC(=O)Nc2cn3cc(-c4ccccc4)ccc3n2)n1 [Example 1-31, 1-[2-(2-Isopropyl-2H-tetrazol-5-yl)-ethyl]-3-(6-phenyl-imidazo[1,2-a]pyridin-2-yl)-urea] | 0.423 µM
32 | CCn1nnc(CCNC(=O)Nc2cn3cc(-c4cncc(C(F)(F)F)c4)ccc3n2)n1 [Example 1-34, 1-[2-(2-Ethyl-2H-tetrazol-5-yl)-ethyl]-3-[6-(5-trifluoromethyl-pyridin-3-yl)-imidazo[1,2-a]pyridin-2-yl]-urea] | 0.007 µM
